In US12448371B2, “Inhibitor compounds” (Cincera Therapeutics Pty Ltd, priority 2019, dated 2025):

Assays:
Des1 (h) = biological target: T1, Des1 (h) (Homo sapiens, UniProt O15121); assay: Measurement of Dihydroceramide Desaturase-1 (Des-1) activity in intact Jurkat cells labeled with DhCer-C6-NBD (HPLC); assay type: cell-based; settings: for IC50: intact Jurkat cells, given as concentration range, or <X / >X if measured at one concentration X only, read-out: Des1 (h) Jurkat IC50
T1 construct: endogenous in cells; host or cells: parental Jurkat cells
T1 sequence (O15121 1-323): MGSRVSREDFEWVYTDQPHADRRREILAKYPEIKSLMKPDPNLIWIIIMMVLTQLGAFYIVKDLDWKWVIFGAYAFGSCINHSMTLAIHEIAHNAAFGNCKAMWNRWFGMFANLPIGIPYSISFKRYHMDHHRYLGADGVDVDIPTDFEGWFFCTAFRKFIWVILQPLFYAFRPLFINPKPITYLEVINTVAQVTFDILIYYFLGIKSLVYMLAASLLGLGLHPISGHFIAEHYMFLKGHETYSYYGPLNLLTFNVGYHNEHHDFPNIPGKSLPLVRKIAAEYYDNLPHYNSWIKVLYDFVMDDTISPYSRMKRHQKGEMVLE
Method in brief: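 Intact parental Jurkat cells in 0.5% serum medium were labelled with DhCer-C6-NBD; cells harvested at 500×g and ceramides extracted. NBD-labelled substrate and product resolved by C18 reverse-phase HPLC and quantified by fluorescence (ex 465/em 530 nm) as a measure of Des-1 activity.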

[1] = test system: Connective Tissue Growth Factor (CTGF) gene expression; assay: Real time quantitative PCR in TGFβ-stimulated human hepatic stellate cells (LX2) to detect CTGF gene expression; assay type: cell-based; settings: CTGF mRNA in TGFβ-stimulated LX2 cells vs vehicle control; for inhibition at 5 µM: LX-2, 5 μM; for inhibition at 1 µM: LX-2, 1 μM; for inhibition at 10 µM: LX-2, 10 μM
Procedure: Real Time Quantitative Polymerase Chain Reaction in Human Hepatic Stellate Cells (LX2) to Detect Connective Tissue Growth Factor (CTGF) Gene Expression The hepatic stellate cell line, LX2 was maintained in DMEM (LifeTechnologies) with 2% heat-inactivated FBS, 100U penicillin (LifeTechnologies), 0.1 mg/mL streptomycin (LifeTechnologies), and 2 mM L-glutamine (LifeTechnologies) at 37° C. with 5% CO2. Cells were seeded into 6-well plates (200,000 cells per well, 2 mLs media) and grown overnight. The cells were changed to 2 mLs 0.5% FBS media for 24 hours prior to treatment. Treatments were added in 2 mLs fresh 0.5% FBS media (vehicle control, long/mL TGFβ alone (R&D Systems), 10 ng/mL TGFβ+inhibitors) and incubated for 24 hours. […] RNA was extracted using Qiagen RNeasy kit (cat #74104), according to manufacturer's instructions. RNA (1 μg) was used to generate cDNA using the Qiagen Quantitect Reverse Transcription Kit (cat #205311), and stored at -20° C. cDNA was diluted (1:25 final) and combined with Sybr Green (Qiagen cat #204143), forward and reverse primers (50 ng each) and run on Real Time PCR Thermocycler machine (RG-6000, Corbett) with the following PCR conditions: Hold 1: 50° C. for 2 min; Hold 2: 95° C. for 15 min; Cycling: 45 cycles of: 95° C. for 30 sec, 58° C. for 21 sec, 72° C. for 15 sec, Hold 3: 72° C. for 30 sec, Melt: 72° C. to 99° C. GAPDH primers (Forward: [NT]; Reverse: [NT] primers (Forward: [NT]; Reverse: [NT] primers available from Origene, cat #HP205671)].

| Compound | IC50 (Des1 (h)) | inhibition at 5 µM [1] | inhibition at 1 µM [1] | inhibition at 10 µM [1] | inhibition at 1 µM (Des1 (h); Jurkat cells, 1 μM) |
| --- | --- | --- | --- | --- | --- |
| N/C(=N/O)c1ccc(Nc2cn(-c3ccc(C(F)(F)F)cn3)nn2)cn1 [Compound 115, N′-Hydroxy-5-((1-(5-(trifluoromethyl)pyridin-2-yl)-1H-1,2,3-triazol-4-yl)amino)picolinimidamide] | < 1000 nM | > 90% | – | – | – |
| N/C(=N\O)c1ccc(Nc2ncc(-c3ccc(OC(F)(F)F)cc3)o2)cn1 [Compound 118, N′-Hydroxy-5-((5-(4-(trifluoromethoxy)phenyl)oxazol-2-yl)amino)picolinimidamide] | < 1000 nM | – | 50 to 60% | 70 to 80% | – |
| N/C(=N\O)c1ccc(Nc2ncc(-c3ccc(C4CC4)cc3)o2)cn1 [Compound 120, 5-((5-(4-Cyclopropylphenyl)oxazol-2-yl)amino)-N′-hydroxypicolinimidamide] | > 1000 nM | – | 40 to 50% | 40 to 50% | 10% |
| CN(O)C(=O)c1ccc(Nc2ncc(-c3ccc(C(F)(F)F)cc3)o2)cn1 [Example 20, N-Nydroxy-N-methyl-5-((5-(4-(trifluoromethyl)phenyl)oxazol-2-yl)amino)picolinamide] | < 100 nM | – | 10 to 20% | 70 to 80% | – |
| O=c1cc(Nc2ncc(-c3ccc(C(F)(F)F)cc3)o2)ccn1O [Example 23, 1-(Hydroxy)-4-((5-(4-(trifluoromethyl)phenyl)oxazol-2-yl)amino)pyridin-2(1H)-one] | 1 to 10 nM | – | 30 to 40% | > 90% | – |
| N/C(=N\O)c1ccc(Nc2ncn(-c3ccc(C(F)(F)F)cc3)n2)cn1 [Example 24, N′-Hydroxy-5-((1-(4-(trifluoromethyl)phenyl)-1H-1,2,4-triazol-3yl)amino)picolinimidamide] | 10 to 100 nM | 50 to 60% | – | – | – |
| Oc1cnc(Nc2ncc(-c3ccc(C(F)(F)F)cc3)o2)cc1O [Example 29, 6-((5-(4-(Trifluoromethyl)phenyl)oxazol-2-yl)amino)pyridine-3,4-diol] | < 1000 nM | – | > 90% | > 90% | – |
| N/C(=N\O)c1nnc(Nc2ncc(-c3ccc(C(F)(F)F)cc3)o2)cc1O [Example 42, N′,4-Dihydroxy-6-((5-(4-(trifluoromethyl)phenyl)oxazol-2-yl)amino)pyridazine-3-carboximidamide] | 1 to 10 nM | – | 10 to 20% | 40 to 50% | – |
| N/C(=N\O)c1cnc(Nc2ncc(-c3ccc(C(F)(F)F)cc3)o2)cn1 [Example 54, N′-Hydroxy-5-((5-(4-(trifluoromethyl)phenyl)oxazol-2-yl)amino)pyrazine-2-carboximidamide] | 100 to 1000 nM | – | 70 to 80% | 80 to 90% | – |
| N/C(=N\O)c1ncc(Nc2ncc(-c3ccc(C(F)(F)F)cc3)o2)cn1 [Example 55, N′-Hydroxy-5-((5-(4-(trifluoromethyl)phenyl)oxazol-2-yl)amino)pyrimidine-2-carboximidamide] | < 1000 nM | – | 20 to 30% | 40 to 50% | – |
| N/C(=N\O)c1cnc(Nc2ncc(-c3ccc(C(F)(F)F)cn3)o2)cn1 [Example 57, N′-Hydroxy-5-((5-(5-(trifluoromethyl)pyridin-2-yl)oxazol-2-yl)amino)pyrazine-2-carboximidamide] | < 1000 nM | – | 1 to 10% | 50 to 60% | – |
| N/C(=N/O)c1cnc(Nc2ncc(-c3ccc(OC(F)(F)F)cc3)o2)cn1 [Example 70, N′-Hydroxy-5-((5-(4-(trifluoromethoxy)phenyl)oxazol-2-yl)amino)pyrazine-2-carboximidamide] | < 1000 nM | > 90% | – | – | – |
| N/C(=N\O)c1ccc(Nc2cnn(-c3ccc(C(F)(F)F)cn3)c2)cn1 [Example 72, N′-Hydroxy-5-((1-(5-(trifluoromethyl)pyridin-2-yl)-1H-pyrazol-4-yl)amino)picolinimidamide] | < 1000 nM | 50 to 60% | 40 to 50% | – | – |
